Values after ≈ are worked out from the molar mass of the structure shown. Peptide text beside a SMILES is read from it.
Legend:
Type in all cases: functional
Candida albicans = experiment: Antifungal activity against Candida albicans SC5314 measured after 24 to 48 hrs by CLSI method; conditions: time 24-48 hrs
Pichia kudriavzevii = experiment: Antifungal activity against Candida krusei IFM56881 measured after 24 to 48 hrs by CLSI method; conditions: time 24-48 hrs
Cryptococcus neoformans = experiment: Antifungal activity against Cryptococcus neoformans H99 measured after 24 to 48 hrs by CLSI method; conditions: time 24-48 hrs
Candida parapsilosis = experiment: Antifungal activity against Candida parapsilosis ATCC 22019 measured after 24 to 48 hrs by CLSI method; conditions: Lodderomyces parapsilosis, time 24-48 hrs

| SMILES | MIC (Candida albicans) | MIC (Pichia kudriavzevii) | MIC (Cryptococcus neoformans) | MIC (Candida parapsilosis) |
| --- | --- | --- | --- | --- |
| CC(C)[C@H](NC(=O)[C@H](CCCNC(=N)N)NC(=O)[C@H](Cc1ccccc1)NC(=O)[C@H](CS)NC(=O)[C@H](Cc1c[nH]c2ccccc12)NC(=O)[C@H](CCCNC(=N)N)NC(=O)[C@@H](N)CCCNC(=N)N)C(=O)N[C@@H](CS)C(=O)N[C@@H](Cc1ccc(O)cc1)C(=O)N[C@@H](CCCNC(=N)N)C(=O)NCC(=O)N[C@@H](Cc1ccccc1)C(=O)N[C@@H](CS)C(=O)N[C@@H](Cc1ccc(O)cc1)C(=O)N[C@@H](CCCNC(=N)N)C(=O)N[C@@H](CCCCN)C(=O)N[C@@H](CS)C(=O)N[C@@H](CCCNC(=N)N)C(=O)O (H-RRWCFRVCYRGFCYRKCR-OH) | 4.07 µM (≈ 10 µg/mL) | 4.07 µM (≈ 10 µg/mL) | 1.02 µM (≈ 2.51 µg/mL) | 1.02 µM (≈ 2.51 µg/mL) |
| CC[C@H](C)[C@H](NC(=O)[C@H](C)NC(=O)[C@H](CS)NC(=O)[C@H](CO)NC(=O)[C@@H](NC(=O)[C@H](Cc1ccccc1)NC(=O)[C@@H](N)Cc1ccc(O)cc1)[C@@H](C)CC)C(=O)N[C@@H](Cc1cnc[nH]1)C(=O)N[C@@H](Cc1ccccc1)C(=O)N[C@@H](CCCCN)C(=O)N[C@H](C(=O)N[C@@H](CC(C)C)C(=O)N[C@@H](CCCCN)C(=O)N[C@H](C(=O)N[C@@H](CCCNC(=N)N)C(=O)N[C@@H](CO)C(=O)N[C@@H](C)C(=O)N[C@@H](C)C(=O)N[C@@H](CCCCN)C(=O)N[C@@H](CCCNC(=N)N)C(=O)N[C@@H](CCCNC(=N)N)C(=O)N[C@@H](CCC(=O)O)C(=O)N[C@@H](Cc1cnc[nH]1)C(=O)N[C@H](C(=O)N[C@@H](CCCCN)C(=O)N[C@@H](CC(C)C)C(=O)N[C@@H](CCCNC(=N)N)C(=O)O)[C@@H](C)O)[C@@H](C)CC)[C@@H](C)CC (H-YFISCAIHFKILKIRSAAKRREHTKLR-OH) | 77.9 µM (≈ 256 µg/mL) | 19.5 µM (≈ 64 µg/mL) | 38.9 µM (≈ 128 µg/mL) | 77.9 µM (≈ 256 µg/mL) |
| CC[C@H](C)[C@H](NC(=O)[C@H](Cc1cnc[nH]1)NC(=O)[C@H](C)NC(=O)[C@H](CC(C)C)NC(=O)[C@H](CC(C)C)NC(=O)[C@H](CCCCN)NC(=O)[C@H](CCSC)NC(=O)[C@@H](NC(=O)[C@@H](NC(=O)[C@H](Cc1cnc[nH]1)NC(=O)[C@H](Cc1c[nH]c2ccccc12)NC(=O)[C@@H](NC(=O)[C@H](CCCCN)NC(=O)[C@H](Cc1cnc[nH]1)NC(=O)[C@@H](NC(=O)[C@H](CCCCN)NC(=O)[C@H](Cc1cnc[nH]1)NC(=O)[C@@H](N)Cc1ccc(O)cc1)[C@@H](C)CC)C(C)C)[C@@H](C)CC)[C@@H](C)CC)C(=O)O (H-YHKIHKVWHIIMKLLAHI-OH) | 28.1 µM (≈ 64 µg/mL) | 7.02 µM (≈ 16 µg/mL) | 7.02 µM (≈ 16 µg/mL) | 14 µM (≈ 32 µg/mL) |
| CC[C@H](C)[C@H](NC(=O)[C@H](CCCNC(=N)N)NC(=O)CNC(=O)[C@H](CC(C)C)NC(=O)[C@H](Cc1ccccc1)NC(=O)[C@H](CCC(N)=O)NC(=O)[C@H](Cc1ccccc1)NC(=O)[C@@H](N)C(C)C)C(=O)N[C@H](C(=O)N[C@@H](Cc1cnc[nH]1)C(=O)N[C@@H](Cc1cnc[nH]1)C(=O)N[C@H](C(=O)NCC(=O)N[C@@H](CC(N)=O)C(=O)N[C@@H](Cc1ccccc1)C(=O)N[C@H](C(=O)N[C@@H](Cc1cnc[nH]1)C(=O)NCC(=O)N[C@@H](Cc1ccccc1)C(=O)N[C@@H](CO)C(=O)N[C@@H](Cc1cnc[nH]1)C(=O)N[C@H](C(=O)N[C@@H](Cc1ccccc1)C(=O)O)C(C)C)C(C)C)C(C)C)[C@@H](C)CC [Clavanin B] (H-VFQFLGRIIHHVGNFVHGFSHVF-OH) | > 95 µM | > 95 µM | > 95 µM | > 95 µM |
